Test results published in article PMC9607578, “Chemopreventive Effect on Human Colon Adenocarcinoma Cells of Styrylquinolines: Synthesis, Cytotoxicity, Proapoptotic Effect and Molecular Docking Analysis” (Molecules, 2022).
Where two headings read alike, the source gives them in different places.

What was measured:
HaCaT cells = experiment: Cytotoxic activity, sulforhodamine B (SRB) staining; assay type: cell-based; conditions: Homo sapiens, mean ± SE, read-out: HaCaT IC50
Protocol: (§1) For the biological assays, the human colon adenocarcinoma cell line SW480 and its metastatic derivative SW620 were used. Additionally, the nonmalignant cell line HaCaT was used to find the selectivity index of the compounds. All cell lines were obtained by the Colombian Plant Chemistry Group of the Faculty of Exact and Natural Sciences of the University of Antioquia (Medellín, Colombia) from the European Collection of Authenticated Cell Cultures (ECACC, Salisbury, UK). Cells were cultured in a DMEM medium with 4500 mg/L of glucose and L-glutamine (Sigma-Aldrich, Burlington, MA, USA), supplemented with 10% heat-inactivated (56 °C) horse serum (Gibco, Waltham, MA, USA), 1% penicillin/streptomycin (Sigma-Aldrich, Burlington, MA, USA), and 1% non-essential amino acids (Sigma-Aldrich, Burlington, MA, USA). For all experiments, horse serum was reduced to 3%, and the medium was supplemented with […] of transferrin, 5 ng/mL of selenium, and […] of insulin (ITS; Sigma-Aldrich, Burlington, MA, USA). All cell lines were incubated at 37 °C in a 5% CO2 atmosphere. Additionally, cell cultures were constantly monitored with PCR (Sigma-Aldrich, Burlington, MA, USA) for Mycoplasma spp. to control contamination with this agent.
(§2) To evaluate the effect of styrylquinolines on the viability of the SW480, SW620, and HaCaT cell lines, sulforhodamine B (SRB) staining was used. SRB is a colorimetric assay that indirectly estimates the number of living cells based on the ability of SRB to bind to protein components of adherent cells. Briefly, the malignant cell lines were seeded at a final density of 2.0 × 10^4 cells/well, and the nonmalignant cell line was seeded at a final density of 1.5 × 10^4 cells/well in 96-well tissue culture plates. All cell lines were incubated at 37 °C in a 5% CO2 atmosphere for 24 h to enable cell adherence, and they were then treated for 24 and 48 h with increasing concentrations (0.01–160 µM) of the styrylquinolines or their respective precursors (8-hydroxyquinoline and resveratrol), as well as 1% DMSO (negative control) and 5-FU (standard drug). After treatment, cells were fixed with trichloroacetic acid (50% v/v; PanReac AppliChem, Barcelona, Spain) for a period of one hour at 4 °C. After this, the cells were incubated for 30 min at room temperature with 0.4% (w/v) SRB (Sigma-Aldrich, Burlington, MA, USA). To remove unbound SRB, the cells were washed with 1% acetic acid, and the plates were allowed to dry at room temperature. Protein-bound SRB was solubilized with 10 mM Tris-base (Amresco, Cleveland, OH, USA) for 30 min at room temperature under constant agitation, and absorbance was measured at 490 nm in a microplate reader (Bio-Rad iMark^TM, Hercules, CA, USA). Finally, the concentration of the compound that inhibits 50% of cell growth (IC50) and the selectivity index (SI) were determined.

SW480 cells [1] = experiment: as above; assay type: cell-based, human; conditions: for IC50: Homo sapiens, SW480, mean ± SE, read-out: SW480 IC50
Protocol: as §1, §2

SW620 cells [2] = experiment: as above; assay type: cell-based, human; conditions: for IC50: Homo sapiens, SW-620, mean ± SE, read-out: SW620 IC50
Protocol: as §1, §2

SW480 cells [3] = experiment: Antiproliferative activity, SRB staining, 0-8 days; assay type: cell-based, human
Protocol: (§3) The antiproliferative activity of styrylquinolines with higher selective cytotoxicity toward malignant cells was also tested with SRB staining. Briefly, cells were seeded to a final density of 2.5 × 10^3 cells/well in 96-well tissue culture plates and incubated under the same conditions described for cytotoxic activity. After 24 h, the cells were treated with increasing concentrations (5–80 µM) of the selected hybrids or with 1% DMSO (negative control) for 0, 2, 4, 6, and 8 days. Culture media were replaced every 48 h to guarantee the basic nutrients required for cell growth and viability, maintaining the concentrations of each of the selected hybrids. After each incubation time, cells were fixed and stained, and the absorbance was measured as described above.

SW620 cells [4] = experiment: Antiproliferative activity, SRB staining, 0-8 days; assay type: cell-based, human
Protocol: as §3

SW480 cells [5] = experiment: Intracellular ROS production, 2',7'-DCFDA probe; assay type: cell-based, human; conditions: SW480, 48 h, treated at IC50, mean ± SE
Protocol: (§4) In order to evaluate the effect of the chosen styrylquinolines on the production of ROS in malignant cells, the 2′,7′-dichlorofluorescein diacetate (2′,7′-DCFDA) probe (Calbiochem, San Diego, CA, USA) was used as described by Kim et al.. Briefly, malignant cells were seeded at a final density of 2.5 × 10^5 cells/well in 6-well tissue culture plates for 24 h at 37 °C in a 5% CO2 atmosphere. […] After treatment, 2′,7′-DCFDA was added to a final concentration of 10 µM and incubated at 37 °C for 30 min. Finally, representative images of each well were taken using a fluorescence microscope (Axio Vert. A1; ZEISS, Jena, Germany) and Zen blue 3.4 software. The cell lysate was obtained from each well, and relative fluorescence units (RFU) were measured at excitation/emission wavelength (Ex/Em) = 485/525 nm using the Varioskan Lux microplate reader (Thermo Fisher Scientific, Waltham, MA, USA). The total protein concentration was quantified with the BCA method using the Pierce^TM BCA kit (Thermo Fisher Scientific, Waltham, MA, USA) to normalize the UFR.

SW620 cells [6] = experiment: Intracellular ROS production, 2',7'-DCFDA probe; assay type: cell-based, human; conditions: SW620, 24 h, treated at IC50, mean ± SE
Protocol: as §4

Oc1ccc(/C=C/c2ccc3cccc(O)c3n2)cc1O [Compound 3d]
IC50 (HaCaT cells; 24 h treatment): 164 ± 14.1 µM | IC50 (HaCaT cells; 48 h treatment): 78.9 ± 2.3 µM | SI (IC50 HaCaT / IC50 SW480) (SW480 cells [1]; 24 h treatment): 1.0 | SI (IC50 HaCaT / IC50 SW480) (SW480 cells [1]; 48 h treatment): 1.9 | IC50 (SW480 cells [1]; 24 h treatment): 160 ± 16.6 µM | IC50 (SW480 cells [1]; 48 h treatment): 42.5 ± 5.2 µM | SI (IC50 HaCaT / IC50 SW620) (SW620 cells [2]; 24 h treatment): 3.0 | SI (IC50 HaCaT / IC50 SW620) (SW620 cells [2]; 48 h treatment): 12.3 | IC50 (SW620 cells [2]; 24 h treatment): 54.6 ± 7.5 µM | IC50 (SW620 cells [2]; 48 h treatment): 6.4 ± 1.1 µM | Concentration required to significantly decrease cell viability percentage from day 2 post-treatment (SW480 cells [3]; SW480, day 2): 40 µM | Concentration from which cell viability percentage is decreased to 0% / high percentage of reduction (SW480 cells [3]; SW480, treatment up to 8 days): 40 µM | Concentration required to significantly decrease cell viability percentage from day 2 post-treatment (SW620 cells [4]; SW620, day 2): 20 µM | Concentration from which cell viability percentage is decreased to 0% / high percentage of reduction (SW620 cells [4]; SW620, treatment up to 8 days): 40 µM | ROS levels (SW480 cells [5]): 3.3 ± 0.2 RFU | ROS levels (SW620 cells [6]): 1.8 ± 0.1 RFU
